Laboratory results published in ChEMBL document CHEMBL2321764, “Synthesis and antibacterial activities of new piperidine substituted (5R)-[1,2,3]triazolylmethyl and (5R)-[(4-F-[1,2,3]triazolyl)methyl] oxazolidinones” (Bioorg Med Chem Lett, 2013).
In brackets after ≈: the same amount, converted by molar mass.

Columns and labels:
Enterococcus faecalis = assay: Antibacterial activity against vancomycin-resistant Enterococcus faecalis C474 by agar dilution method; assay type: functional
Streptococcus pyogenes = assay: Antibacterial activity against Streptococcus pyogenes 308A by agar dilution method; assay type: functional
Haemophilus influenzae = assay: Antibacterial activity against betalactamase positive Haemophilus influenzae by agar dilution method; assay type: functional
Streptococcus agalactiae = assay: Antibacterial activity against Streptococcus agalactiae ATCC 2901 by agar dilution method; assay type: functional
Staphylococcus = assay: Antibacterial activity against methicillin-resistant coagulase negative Staphylococcus by agar dilution method; assay type: functional
Staphylococcus aureus = assay: Antibacterial activity against methicillin-resistant Staphylococcus aureus C463 by agar dilution method; assay type: functional
Streptococcus pneumoniae = assay: Antibacterial activity against penicillin-resistant Streptococcus pneumoniae C402 by agar dilution method; assay type: functional
Enterococcus faecium = assay: Antibacterial activity against vancomycin-resistant Enterococcus faecium C803 by agar dilution method; assay type: functional
MAO-A = molecular target: T1, MAO-A (Homo sapiens, UniProt P21397); assay: Inhibition of human MAO-A assessed as residual activity at 10 uM; settings: read-out: INH
T1 sequence (P21397 whole entry): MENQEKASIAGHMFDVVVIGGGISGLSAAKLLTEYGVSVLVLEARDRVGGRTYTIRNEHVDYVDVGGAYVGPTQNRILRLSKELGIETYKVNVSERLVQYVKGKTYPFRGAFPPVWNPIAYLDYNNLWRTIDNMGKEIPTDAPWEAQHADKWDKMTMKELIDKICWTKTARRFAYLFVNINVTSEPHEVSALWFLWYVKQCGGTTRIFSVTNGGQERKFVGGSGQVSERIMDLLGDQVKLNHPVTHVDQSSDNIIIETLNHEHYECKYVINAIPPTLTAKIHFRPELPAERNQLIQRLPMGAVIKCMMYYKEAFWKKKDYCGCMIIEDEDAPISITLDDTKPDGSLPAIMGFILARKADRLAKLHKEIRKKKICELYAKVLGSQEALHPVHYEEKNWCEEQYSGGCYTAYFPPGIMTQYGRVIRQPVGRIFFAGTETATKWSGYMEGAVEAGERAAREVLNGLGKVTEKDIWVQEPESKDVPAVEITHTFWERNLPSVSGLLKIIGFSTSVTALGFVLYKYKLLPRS

CYP2C9 = CYP2C9 (Homo sapiens, UniProt P11712); assay: Inhibition of CYP2C9 (unknown origin) assessed as residual activity at 10 uM; assay type: ADME; settings: read-out: INH
Chain of CYP2C9 (P11712 whole entry): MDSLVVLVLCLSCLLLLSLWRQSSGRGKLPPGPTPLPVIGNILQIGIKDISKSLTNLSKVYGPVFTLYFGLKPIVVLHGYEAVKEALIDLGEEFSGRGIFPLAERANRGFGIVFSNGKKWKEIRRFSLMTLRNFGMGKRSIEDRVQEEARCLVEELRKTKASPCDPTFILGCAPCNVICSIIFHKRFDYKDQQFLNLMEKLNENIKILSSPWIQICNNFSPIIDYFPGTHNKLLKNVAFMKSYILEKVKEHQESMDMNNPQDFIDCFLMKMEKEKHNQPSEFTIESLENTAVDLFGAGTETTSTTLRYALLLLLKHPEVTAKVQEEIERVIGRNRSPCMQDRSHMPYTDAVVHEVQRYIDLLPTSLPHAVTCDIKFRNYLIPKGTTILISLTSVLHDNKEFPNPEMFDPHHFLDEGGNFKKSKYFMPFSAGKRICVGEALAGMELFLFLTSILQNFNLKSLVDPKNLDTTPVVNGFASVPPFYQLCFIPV

CYP1A2 = molecular target: T2, CYP1A2 (Homo sapiens, UniProt P05177); assay: Inhibition of CYP1A2 (unknown origin) assessed as residual activity at 10 uM; assay type: ADME; settings: read-out: INH
T2 sequence (P05177 whole entry): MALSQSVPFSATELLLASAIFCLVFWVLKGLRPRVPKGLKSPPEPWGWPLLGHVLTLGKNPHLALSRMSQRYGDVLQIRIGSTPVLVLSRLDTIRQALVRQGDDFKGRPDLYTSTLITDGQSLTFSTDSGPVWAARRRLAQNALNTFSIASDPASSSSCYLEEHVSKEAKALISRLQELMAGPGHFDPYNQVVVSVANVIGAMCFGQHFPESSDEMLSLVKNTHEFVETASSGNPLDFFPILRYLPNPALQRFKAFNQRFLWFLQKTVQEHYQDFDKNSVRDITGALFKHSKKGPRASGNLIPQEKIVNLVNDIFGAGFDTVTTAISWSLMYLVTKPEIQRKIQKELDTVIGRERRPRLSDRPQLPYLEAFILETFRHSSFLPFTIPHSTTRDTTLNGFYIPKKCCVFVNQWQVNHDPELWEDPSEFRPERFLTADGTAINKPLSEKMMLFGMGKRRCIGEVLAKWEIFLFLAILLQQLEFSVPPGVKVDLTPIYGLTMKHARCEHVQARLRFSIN

MAO-B = molecular target: T3, MAO-B (Homo sapiens, UniProt P27338); assay: Inhibition of human MAO-B assessed as residual activity at 10 uM; settings: read-out: INH
T3 sequence (P27338 whole entry): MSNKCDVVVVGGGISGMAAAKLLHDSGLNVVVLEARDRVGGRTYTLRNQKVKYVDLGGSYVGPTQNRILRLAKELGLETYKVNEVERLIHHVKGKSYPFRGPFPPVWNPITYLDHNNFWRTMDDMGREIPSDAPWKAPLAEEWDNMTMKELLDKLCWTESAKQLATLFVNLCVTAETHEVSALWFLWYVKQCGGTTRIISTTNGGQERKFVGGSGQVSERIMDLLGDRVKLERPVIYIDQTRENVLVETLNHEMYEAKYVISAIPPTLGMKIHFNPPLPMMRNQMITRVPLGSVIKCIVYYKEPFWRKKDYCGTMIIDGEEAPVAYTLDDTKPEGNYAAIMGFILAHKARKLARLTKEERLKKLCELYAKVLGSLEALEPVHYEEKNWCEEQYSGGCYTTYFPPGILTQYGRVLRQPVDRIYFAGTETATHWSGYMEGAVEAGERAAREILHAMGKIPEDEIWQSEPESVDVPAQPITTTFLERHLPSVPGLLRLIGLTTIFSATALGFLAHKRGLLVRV

CYP2D6 = CYP2D6 (Homo sapiens, UniProt P10635); assay: Inhibition of CYP2D6 (unknown origin) assessed as residual activity at 10 uM; assay type: ADME; settings: read-out: INH
Chain of CYP2D6 (P10635 whole entry): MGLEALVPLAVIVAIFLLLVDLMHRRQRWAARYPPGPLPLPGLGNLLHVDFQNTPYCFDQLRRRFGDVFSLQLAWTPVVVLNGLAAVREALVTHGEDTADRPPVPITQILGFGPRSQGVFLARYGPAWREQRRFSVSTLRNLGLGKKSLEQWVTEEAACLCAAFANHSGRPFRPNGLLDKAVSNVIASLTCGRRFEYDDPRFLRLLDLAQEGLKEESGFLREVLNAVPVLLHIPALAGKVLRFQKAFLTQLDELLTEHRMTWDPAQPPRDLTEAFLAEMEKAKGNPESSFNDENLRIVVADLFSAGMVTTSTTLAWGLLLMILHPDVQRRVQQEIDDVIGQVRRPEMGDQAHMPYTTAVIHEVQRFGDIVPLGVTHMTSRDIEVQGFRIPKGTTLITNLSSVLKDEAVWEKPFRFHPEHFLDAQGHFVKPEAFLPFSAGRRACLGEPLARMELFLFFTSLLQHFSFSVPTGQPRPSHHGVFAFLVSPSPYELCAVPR

[1] = molecular target: Voltage-gated inwardly rectifying potassium channel KCNH2 (Homo sapiens, UniProt Q12809); assay: Inhibition of human hERG by automated patch clamp assay
Chain of Voltage-gated inwardly rectifying potassium channel KCNH2 (Q12809 whole entry): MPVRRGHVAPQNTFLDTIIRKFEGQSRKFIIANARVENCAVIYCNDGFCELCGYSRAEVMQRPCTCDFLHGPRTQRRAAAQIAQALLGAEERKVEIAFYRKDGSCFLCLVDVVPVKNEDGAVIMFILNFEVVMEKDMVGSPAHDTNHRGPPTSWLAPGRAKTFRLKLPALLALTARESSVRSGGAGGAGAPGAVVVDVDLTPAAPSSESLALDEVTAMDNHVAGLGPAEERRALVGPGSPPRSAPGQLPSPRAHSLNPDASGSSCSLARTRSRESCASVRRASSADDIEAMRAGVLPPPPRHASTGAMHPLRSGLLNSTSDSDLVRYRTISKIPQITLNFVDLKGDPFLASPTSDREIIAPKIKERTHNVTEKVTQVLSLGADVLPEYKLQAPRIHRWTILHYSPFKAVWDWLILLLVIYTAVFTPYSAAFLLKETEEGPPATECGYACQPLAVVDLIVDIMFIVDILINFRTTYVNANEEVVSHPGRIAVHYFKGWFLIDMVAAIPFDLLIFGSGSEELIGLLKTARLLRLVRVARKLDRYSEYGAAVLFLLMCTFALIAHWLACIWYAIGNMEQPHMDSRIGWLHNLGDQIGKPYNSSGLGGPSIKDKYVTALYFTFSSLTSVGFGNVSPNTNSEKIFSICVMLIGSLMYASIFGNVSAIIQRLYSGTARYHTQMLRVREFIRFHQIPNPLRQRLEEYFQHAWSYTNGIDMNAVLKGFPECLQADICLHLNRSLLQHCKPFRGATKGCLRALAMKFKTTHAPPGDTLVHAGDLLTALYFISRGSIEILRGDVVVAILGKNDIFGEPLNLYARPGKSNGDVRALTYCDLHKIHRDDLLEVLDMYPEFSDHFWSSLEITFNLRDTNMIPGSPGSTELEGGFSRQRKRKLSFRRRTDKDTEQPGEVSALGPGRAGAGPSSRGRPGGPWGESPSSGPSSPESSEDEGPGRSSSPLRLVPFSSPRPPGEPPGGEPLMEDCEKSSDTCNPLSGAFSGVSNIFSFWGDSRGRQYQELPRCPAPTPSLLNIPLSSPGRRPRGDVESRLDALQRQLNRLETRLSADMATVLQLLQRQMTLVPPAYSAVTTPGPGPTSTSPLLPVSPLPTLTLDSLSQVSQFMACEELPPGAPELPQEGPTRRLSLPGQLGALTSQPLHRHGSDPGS

CYP3A4 = CYP3A4 (Homo sapiens, UniProt P08684); assay: Inhibition of CYP3A4 (unknown origin) assessed as residual activity at 10 uM; assay type: ADME; settings: read-out: INH
Chain of CYP3A4 (P08684 whole entry): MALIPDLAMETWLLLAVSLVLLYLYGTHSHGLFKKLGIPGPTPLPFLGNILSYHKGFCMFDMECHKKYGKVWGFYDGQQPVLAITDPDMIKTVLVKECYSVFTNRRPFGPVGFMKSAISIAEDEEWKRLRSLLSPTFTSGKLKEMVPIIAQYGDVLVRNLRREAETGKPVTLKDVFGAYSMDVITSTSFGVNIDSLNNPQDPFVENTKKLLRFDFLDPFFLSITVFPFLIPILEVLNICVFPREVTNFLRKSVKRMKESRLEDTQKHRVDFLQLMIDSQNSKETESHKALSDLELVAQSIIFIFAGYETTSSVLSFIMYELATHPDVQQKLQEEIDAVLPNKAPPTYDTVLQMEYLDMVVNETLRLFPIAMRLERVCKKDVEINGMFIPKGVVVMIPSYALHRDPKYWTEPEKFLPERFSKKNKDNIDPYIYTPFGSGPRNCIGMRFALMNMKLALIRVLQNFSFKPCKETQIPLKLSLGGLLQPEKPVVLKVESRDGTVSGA

Structure (SMILES)	MIC (Enterococcus faecalis) [µg/mL]	MIC (Streptococcus pyogenes) [µg/mL]	MIC (Haemophilus influenzae) [µg/mL]	MIC (Streptococcus agalactiae) [µg/mL]	MIC (Staphylococcus) [µg/mL]	MIC (Staphylococcus aureus) [µg/mL]	MIC (Streptococcus pneumoniae) [µg/mL]	MIC (Enterococcus faecium) [µg/mL]	activity at 10 µM (MAO-A) [%]	activity at 10 µM (CYP2C9) [%]	activity at 10 µM (CYP1A2) [%]	activity at 10 µM (MAO-B) [%]	activity at 10 µM (CYP2D6) [%]	IC50 [1] [µM]	activity at 10 µM (CYP3A4) [%]
N#CCC1=CCN(c2ccc(N3C[C@H](Cn4ccnn4)OC3=O)cc2F)CC1	3.12 (≈ 8.16 µM)	0.39 (≈ 1.02 µM)	1.56 (≈ 4.08 µM)	1.56 (≈ 4.08 µM)	3.12 (≈ 8.16 µM)	3.12 (≈ 8.16 µM)	0.39 (≈ 1.02 µM)	3.12 (≈ 8.16 µM)	–	–	–	–	–	–	–
N#CCC1=CCN(c2ccc(N3C[C@H](Cn4cc(F)nn4)OC3=O)cc2F)CC1	100 (≈ 250 µM)	25 (≈ 62.4 µM)	12.5 (≈ 31.2 µM)	25 (≈ 62.4 µM)	100 (≈ 250 µM)	100 (≈ 250 µM)	50 (≈ 125 µM)	100 (≈ 250 µM)	–	–	–	–	–	–	–
CCOC(=O)CC1=CCN(c2ccc(N3C[C@H](Cn4ccnn4)OC3=O)cc2F)CC1	6.25 (≈ 14.6 µM)	1.56 (≈ 3.63 µM)	3.12 (≈ 7.27 µM)	1.56 (≈ 3.63 µM)	6.25 (≈ 14.6 µM)	6.25 (≈ 14.6 µM)	1.56 (≈ 3.63 µM)	6.25 (≈ 14.6 µM)	–	–	–	–	–	–	–
N#CC=C1CCN(c2ccc(N3C[C@H](Cn4ccnn4)OC3=O)cc2F)CC1	3.12 (≈ 8.16 µM)	0.39 (≈ 1.02 µM)	0.78 (≈ 2.04 µM)	0.78 (≈ 2.04 µM)	3.12 (≈ 8.16 µM)	3.12 (≈ 8.16 µM)	0.39 (≈ 1.02 µM)	1.56 (≈ 4.08 µM)	3.54	88	55.2	111	80.9	49.5	32
N#CC=C1CCN(c2ccc(N3C[C@H](Cn4cc(F)nn4)OC3=O)cc2F)CC1	50 (≈ 125 µM)	50 (≈ 125 µM)	6.25 (≈ 15.6 µM)	100 (≈ 250 µM)	100 (≈ 250 µM)	50 (≈ 125 µM)	6.25 (≈ 15.6 µM)	50 (≈ 125 µM)	50.6	66.6	91.8	19.5	117	–	23.6
CCOC(=O)C=C1CCN(c2ccc(N3C[C@H](Cn4ccnn4)OC3=O)cc2F)CC1	25 (≈ 58.2 µM)	6.25 (≈ 14.6 µM)	12.5 (≈ 29.1 µM)	12.5 (≈ 29.1 µM)	25 (≈ 58.2 µM)	25 (≈ 58.2 µM)	6.25 (≈ 14.6 µM)	25 (≈ 58.2 µM)	–	–	–	–	–	–	–
CCOC(=O)C=C1CCN(c2ccc(N3C[C@H](Cn4cc(F)nn4)OC3=O)cc2F)CC1	100 (≈ 223 µM)	50 (≈ 112 µM)	6.25 (≈ 14 µM)	100 (≈ 223 µM)	100 (≈ 223 µM)	100 (≈ 223 µM)	6.25 (≈ 14 µM)	100 (≈ 223 µM)	–	–	–	–	–	–	–
COC(=O)C=C1CCN(c2ccc(N3C[C@H](Cn4ccnn4)OC3=O)cc2F)CC1	3.12 (≈ 7.51 µM)	0.78 (≈ 1.88 µM)	1.56 (≈ 3.76 µM)	1.56 (≈ 3.76 µM)	3.12 (≈ 7.51 µM)	3.12 (≈ 7.51 µM)	0.78 (≈ 1.88 µM)	6.25 (≈ 15 µM)	–	–	–	–	–	–	–
CCOC(=O)C(C)=C1CCN(c2ccc(N3C[C@H](Cn4ccnn4)OC3=O)cc2F)CC1	6.25 (≈ 14.1 µM)	0.78 (≈ 1.76 µM)	1.56 (≈ 3.52 µM)	1.56 (≈ 3.52 µM)	12.5 (≈ 28.2 µM)	12.5 (≈ 28.2 µM)	0.78 (≈ 1.76 µM)	6.25 (≈ 14.1 µM)	–	–	–	–	–	–	–
CCOC(=O)C(C)=C1CCN(c2ccc(N3C[C@H](Cn4cc(F)nn4)OC3=O)cc2F)CC1	100 (≈ 217 µM)	100 (≈ 217 µM)	100 (≈ 217 µM)	100 (≈ 217 µM)	100 (≈ 217 µM)	100 (≈ 217 µM)	100 (≈ 217 µM)	100 (≈ 217 µM)	–	–	–	–	–	–	–
